The text below walks through data of patent US6221865A, “Inhibitors of protein isoprenyl transferases” (priority 1998, dated 2001).

For this test, the target named is T1, protein farnesyltransferase (Rattus norvegicus, UniProt Q02293+Q04631).
T1 construct: The enzyme is purified according to Reiss, Y., et al., Cell, 62: 81-88 (1990), utilizing steps one through three; from tissue; host or cells: rat brain
Briefly: Inhibition of farnesyltransferase (scintillation proximity assay, rat brain enzyme, biotin-K Ras B fragment substrate). Type of test: biochemical. As to conditions: for % inhibition of farnesyltransferase at 1 × 10^-6 M: 1 × 10^-6 M (Table 2); for % inhibition of farnesyltransferase at 1 × 10^-5 M: 1 × 10^-5 M (Table 1); for % inhibition of farnesyltransferase at 1 × 10^-7 M: 1 × 10^-7 M (Table 3). The procedure, abridged:
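Enzyme from rat brain, partly purified (steps one to three), assayed by SPA kit using 0.1 mM final biotin-K Ras B peptide as prenyl acceptor rather than biotin-lamin. Activity given as percent inhibition.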
(Scintillation proximity formats need no separation of bound from free tracer.)

SMILES strings stand for the structures.

T1 sequence (Q02293 whole entry, one chain of several): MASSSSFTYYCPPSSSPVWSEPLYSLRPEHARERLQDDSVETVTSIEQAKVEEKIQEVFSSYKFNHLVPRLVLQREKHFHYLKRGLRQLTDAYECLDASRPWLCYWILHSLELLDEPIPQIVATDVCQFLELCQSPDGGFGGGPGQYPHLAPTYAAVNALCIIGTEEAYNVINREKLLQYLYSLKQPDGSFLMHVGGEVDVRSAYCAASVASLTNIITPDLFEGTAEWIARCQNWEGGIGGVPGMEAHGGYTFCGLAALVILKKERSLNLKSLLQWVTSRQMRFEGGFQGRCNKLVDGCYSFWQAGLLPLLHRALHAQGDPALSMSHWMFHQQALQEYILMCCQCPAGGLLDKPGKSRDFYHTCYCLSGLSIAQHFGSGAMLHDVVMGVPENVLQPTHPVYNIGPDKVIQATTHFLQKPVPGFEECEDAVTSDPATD

For `CSCC[C@H](NC(=O)c1ccc(CNc2cccc(I)c2)cc1-c1ccccc1)C(=O)O` [Example 677], the “% inhibition of farnesyltransferase at 1 × 10^-6 M” value (“% inhibition … at 1 × 10^-6 M” for short) stood at 37%.

For `CSCC[C@H](NC(=O)c1ccc(CNc2cccc(OC(F)(F)F)c2)cc1-c1ccccc1)C(=O)O` [Example 678], the “% inhibition of farnesyltransferase at 1 × 10^-5 M” value (from here on “% inhibition … at 1 × 10^-5 M”) was 73%.

Turning to `CSCC[C@H](NC(=O)c1ccc(CNc2cccc(CO)c2)cc1-c1ccccc1)C(=O)O` [Example 680], the “% inhibition … at 1 × 10^-5 M” value turned out to be 58%.

In the case of `CSCC[C@H](NC(=O)c1ccc(CNc2cccc(C(N)=O)c2)cc1-c1ccccc1)C(=O)O` [Example 682], the “% inhibition … at 1 × 10^-6 M” value is 31%.

For the compound `CSCC[C@H](NC(=O)c1ccc(CNc2cccc(N(C)C)c2)cc1-c1ccccc1)C(=O)O` [Example 683], the “% inhibition … at 1 × 10^-5 M” value was determined as 57%.

`CSCC[C@H](NC(=O)c1ccc(CNc2cccc(CC(=O)O)c2)cc1-c1ccccc1)C(=O)O` [Example 684]: the “% inhibition … at 1 × 10^-5 M” value stood at 48%.

In the case of `CSCC[C@H](NC(=O)c1ccc(CNc2cccc(CCC(=O)O)c2)cc1-c1ccccc1)C(=O)O` [Example 685], the “% inhibition … at 1 × 10^-5 M” value was found to be 55%.

Take `CSCC[C@H](NC(=O)c1ccc(CNc2cccc(Oc3ccccc3)c2)cc1-c1ccccc1)C(=O)O` [Example 686]: the “% inhibition … at 1 × 10^-5 M” value was found to be 48%.

For `CSCC[C@H](NC(=O)c1ccc(CNc2ccc(F)cc2)cc1-c1ccccc1)C(=O)O` [Example 687], the “% inhibition … at 1 × 10^-5 M” value is 78%.

Regarding `CSCC[C@H](NC(=O)c1ccc(CNc2ccc(I)cc2)cc1-c1ccccc1)C(=O)O` [Example 688], the “% inhibition … at 1 × 10^-5 M” value was 71%.

For the compound `CSCC[C@H](NC(=O)c1ccc(CNc2ccc(O)cc2)cc1-c1ccccc1)C(=O)O` [Example 689], the “% inhibition … at 1 × 10^-5 M” value came to 73%.

With `COc1ccc(NCc2ccc(C(=O)N[C@@H](CCSC)C(=O)O)c(-c3ccccc3)c2)cc1` [Example 690], the “% inhibition … at 1 × 10^-5 M” value is given as 61%.

Turning to `CSCC[C@H](NC(=O)c1ccc(CNc2ccc(OC(F)(F)F)cc2)cc1-c1ccccc1)C(=O)O` [Example 691], the “% inhibition … at 1 × 10^-6 M” value came to 34%.

Consider `CSCC[C@H](NC(=O)c1ccc(CNc2ccc(C(C)C)cc2)cc1-c1ccccc1)C(=O)O` [Example 692], for which the “% inhibition … at 1 × 10^-5 M” value turned out to be 74%.

Consider `CSCC[C@H](NC(=O)c1ccc(CNc2ccc(C(O)(C(F)(F)F)C(F)(F)F)cc2)cc1-c1ccccc1)C(=O)O` [Example 693], for which the “% inhibition … at 1 × 10^-6 M” value came out at 53%.

Take `CSCC[C@H](NC(=O)c1ccc(CNc2ccc(CCO)cc2)cc1-c1ccccc1)C(=O)O` [Example 694]: the “% inhibition … at 1 × 10^-6 M” value came to 45%.

`CSCC[C@H](NC(=O)c1ccc(CNc2ccc(N3CCCCC3)cc2)cc1-c1ccccc1)C(=O)O` [Example 697]: the “% inhibition … at 1 × 10^-6 M” value is recorded as 39%.

In the case of `CSCC[C@H](NC(=O)c1ccc(CNc2ccc(C3CCCCC3)cc2)cc1-c1ccccc1)C(=O)O` [Example 699], the “% inhibition … at 1 × 10^-5 M” value worked out at 74%.

In the case of `CSCC[C@H](NC(=O)c1ccc(CNc2ccc(-c3ccccc3)cc2)cc1-c1ccccc1)C(=O)O` [Example 700], the “% inhibition … at 1 × 10^-5 M” value amounted to 68%.

Take `CSCC[C@H](NC(=O)c1ccc(CNc2ccc(Oc3ccccc3)cc2)cc1-c1ccccc1)C(=O)O` [Example 701]: the “% inhibition … at 1 × 10^-5 M” value came out at 64%.

Regarding `CSCC[C@H](NC(=O)c1ccc(CNc2ccc(C(=O)c3ccccc3)cc2)cc1-c1ccccc1)C(=O)O` [Example 702], the “% inhibition … at 1 × 10^-5 M” value was 79%.

In the case of `CSCC[C@H](NC(=O)c1ccc(CNc2ccc(-c3nc4ccccc4s3)cc2)cc1-c1ccccc1)C(=O)O` [Example 703], the “% inhibition … at 1 × 10^-6 M” value amounted to 40%.

Regarding `CSCC[C@H](NC(=O)c1ccc(CNc2ccc(C)c(C)c2)cc1-c1ccccc1)C(=O)O` [Example 704], the “% inhibition … at 1 × 10^-5 M” value came to 67%.

Regarding `CSCC[C@H](NC(=O)c1ccc(CNc2ccc3c(c2)CCC3)cc1-c1ccccc1)C(=O)O` [Example 705], the “% inhibition … at 1 × 10^-5 M” value was found to be 72%.

In the case of `CSCC[C@H](NC(=O)c1ccc(CNc2ccc3c(c2)Cc2ccccc2-3)cc1-c1ccccc1)C(=O)O` [Example 706], the “% inhibition … at 1 × 10^-5 M” value was found to be 53%.

As to `CSCC[C@H](NC(=O)c1ccc(CNc2ccc3ncccc3c2)cc1-c1ccccc1)C(=O)O` [Example 708], the “% inhibition … at 1 × 10^-5 M” value stood at 76%.

As to `CSCC[C@H](NC(=O)c1ccc(CNc2cc(C)cc(C)c2)cc1-c1ccccc1)C(=O)O` [Example 709], the “% inhibition … at 1 × 10^-5 M” value is listed as 55%.

For the compound `CSCC[C@H](NC(=O)c1ccc(CNc2cc(C(=O)O)cc(C(=O)O)c2)cc1-c1ccccc1)C(=O)O` [Example 710], the “% inhibition … at 1 × 10^-5 M” value is recorded as 45%.

Turning to `CCN(Cc1ccc(C(=O)N[C@@H](CCSC)C(=O)O)c(-c2ccccc2)c1)Cc1cc([N+](=O)[O-])ccc1O` [Example 711], the “% inhibition … at 1 × 10^-5 M” value is listed as 46%.

As for `CSCC[C@H](NC(=O)c1ccc(CNCc2cc(Cl)cc(Cl)c2)cc1-c1ccccc1)C(=O)O` [Example 712], the “% inhibition … at 1 × 10^-5 M” value amounted to 69%.

As to `CSCC[C@H](NC(=O)c1ccc(CNC(CO)C(O)c2ccccc2)cc1-c1ccccc1)C(=O)O` (stereo partly drawn) [Example 713], the “% inhibition … at 1 × 10^-5 M” value was found to be 40%.

Regarding `CSCC[C@H](NC(=O)c1ccc(CNC(CO)Cc2ccccc2)cc1-c1ccccc1)C(=O)O` (stereo partly drawn) [Example 714], the “% inhibition … at 1 × 10^-5 M” value turned out to be 56%.

For `CSCC[C@H](NC(=O)c1ccc(CN[C@H](CC2CCCCC2)[C@H](O)[C@H](O)CC(C)C)cc1-c1ccccc1)C(=O)O` [Example 715], the “% inhibition … at 1 × 10^-5 M” value stood at 67%.

As to `CSCC[C@H](NC(=O)c1ccc(CN[C@@H](CC2CCCCC2)[C@@H](O)[C@@H](O)CC(C)C)cc1-c1ccccc1)C(=O)O` [Example 716], the “% inhibition … at 1 × 10^-6 M” value is 69%.

Consider `CSCC[C@H](NC(=O)c1ccc(CNCCCCc2ccccc2)cc1-c1ccccc1)C(=O)O` [Example 718], for which the “% inhibition … at 1 × 10^-5 M” value came out at 40%.

For the compound `CSCC[C@H](NC(=O)c1ccc(CN(C)CC(O)CO)cc1-c1ccccc1C)C(=O)O` (stereo partly drawn) [Example 719], the “% inhibition … at 1 × 10^-6 M” value is 90%.

Turning to `CCc1nnc(NCc2ccc(C(=O)N[C@@H](CCSC)C(=O)O)c(-c3ccccc3C)c2)s1` [Example 723], the “% inhibition … at 1 × 10^-6 M” value came to 87%.

`COC(=O)c1cscc1NCc1ccc(C(=O)N[C@@H](CCSC)C(=O)O)c(-c2ccccc2C)c1` [Example 724]: the “% inhibition … at 1 × 10^-6 M” value amounted to 87%.

Regarding `CSCC[C@H](NC(=O)c1ccc(CNc2ccc(S(=O)(=O)Nc3onc(C)c3C)cc2)cc1-c1ccccc1C)C(=O)O` [Example 726], the “% inhibition … at 1 × 10^-6 M” value was 81%.

For the compound `CSCC[C@H](NC(=O)c1ccc(CN[C@H](CO)Cc2ccccc2)cc1-c1ccccc1C)C(=O)O` [Example 727], the “% inhibition … at 1 × 10^-6 M” value was determined as 95%.

As to `CSCC[C@H](NC(=O)c1ccc(CSC2=NCCS2)cc1-c1ccccc1C)C(=O)O` [Example 730], the “% inhibition of farnesyltransferase at 1 × 10^-7 M” value (from here on “% inhibition … at 1 × 10^-7 M”) was 96%.

As to `CSCC[C@H](NC(=O)c1ccc(CSc2nc3ccccc3[nH]2)cc1-c1ccccc1C)C(=O)O` [Example 732], the “% inhibition … at 1 × 10^-7 M” value was 84%.

For the compound `CSCC[C@H](NC(=O)c1ccc(CSc2nc3cc(C)ccc3[nH]2)cc1-c1ccccc1C)C(=O)O` [Example 733], the “% inhibition … at 1 × 10^-7 M” value amounted to 60%.

On to `CSCC[C@H](NC(=O)c1ccc(CSc2nnc(N)s2)cc1-c1ccccc1C)C(=O)O` [Example 734], for which the “% inhibition … at 1 × 10^-7 M” value worked out at 49%.

With `CSCC[C@H](NC(=O)c1ccc(CSc2nnc[nH]2)cc1-c1ccccc1C)C(=O)O` [Example 735], the “% inhibition … at 1 × 10^-7 M” value is 96%.

For `CSCC[C@H](NC(=O)c1ccc(CSc2ccccc2C(C)C)cc1-c1ccccc1C)C(=O)O` [Example 739], the “% inhibition … at 1 × 10^-7 M” value was 83%.

Take `CSCC[C@H](NC(=O)c1ccc(CSc2ccc(F)cc2)cc1-c1ccccc1C)C(=O)O` [Example 740]: the “% inhibition … at 1 × 10^-7 M” value was 94%.

As to `CSCC[C@H](NC(=O)c1ccc(CSc2ccc(C)cc2C)cc1-c1ccccc1C)C(=O)O` [Example 741], the “% inhibition … at 1 × 10^-7 M” value was 89%.

With `CSCC[C@H](NC(=O)c1ccc(CSc2nc(C)cc(C)n2)cc1-c1ccccc1C)C(=O)O` [Example 743], the “% inhibition … at 1 × 10^-7 M” value is listed as 51%.

As to `CSCC[C@H](NC(=O)c1ccc(CSc2nc(O)cc(Cc3ccccc3)n2)cc1-c1ccccc1C)C(=O)O` [Example 744], the “% inhibition … at 1 × 10^-6 M” value was 84%.

For `CSCC[C@H](NC(=O)c1ccc(CSc2nc3ccccc3c(=O)[nH]2)cc1-c1ccccc1C)C(=O)O` [Example 745], the “% inhibition … at 1 × 10^-7 M” value is on record as 93%.

On to `CSCC[C@H](NC(=O)c1ccc(CSc2ncnc3[nH]ncc23)cc1-c1ccccc1C)C(=O)O` [Example 746], for which the “% inhibition … at 1 × 10^-7 M” value came to 84%.

For the compound `CSCC[C@H](NC(=O)c1ccc(CSc2ncnc3[nH]cnc23)cc1-c1ccccc1C)C(=O)O` [Example 747], the “% inhibition … at 1 × 10^-7 M” value came out at 68%.

With `CSCC[C@H](NC(=O)c1ccc(NC(=O)CN)cc1-c1ccccc1)C(=O)O` [Example 748], the “% inhibition … at 1 × 10^-7 M” value is listed as 56%.

As for `CNCC(=O)Nc1ccc(C(=O)N[C@@H](CCSC)C(=O)O)c(-c2ccccc2)c1` [Example 749], the “% inhibition … at 1 × 10^-6 M” value was 84%.

For `CSCC[C@H](NC(=O)c1ccc(NC(=O)CCN)cc1-c1ccccc1)C(=O)O` [Example 750], the “% inhibition … at 1 × 10^-5 M” value is listed as 44%.

With `CSCC[C@H](NC(=O)c1ccc(NC(=O)C[C@H]2C[C@@H](C(C)=O)C2(C)C)cc1-c1ccccc1)C(=O)O` [Example 751], the “% inhibition … at 1 × 10^-6 M” value is given as 32%.
